The target in this experiment is T1, Receptor-type tyrosine-protein phosphatase eta (Homo sapiens, UniProt Q12913).
T1 sequence (Q12913 whole entry): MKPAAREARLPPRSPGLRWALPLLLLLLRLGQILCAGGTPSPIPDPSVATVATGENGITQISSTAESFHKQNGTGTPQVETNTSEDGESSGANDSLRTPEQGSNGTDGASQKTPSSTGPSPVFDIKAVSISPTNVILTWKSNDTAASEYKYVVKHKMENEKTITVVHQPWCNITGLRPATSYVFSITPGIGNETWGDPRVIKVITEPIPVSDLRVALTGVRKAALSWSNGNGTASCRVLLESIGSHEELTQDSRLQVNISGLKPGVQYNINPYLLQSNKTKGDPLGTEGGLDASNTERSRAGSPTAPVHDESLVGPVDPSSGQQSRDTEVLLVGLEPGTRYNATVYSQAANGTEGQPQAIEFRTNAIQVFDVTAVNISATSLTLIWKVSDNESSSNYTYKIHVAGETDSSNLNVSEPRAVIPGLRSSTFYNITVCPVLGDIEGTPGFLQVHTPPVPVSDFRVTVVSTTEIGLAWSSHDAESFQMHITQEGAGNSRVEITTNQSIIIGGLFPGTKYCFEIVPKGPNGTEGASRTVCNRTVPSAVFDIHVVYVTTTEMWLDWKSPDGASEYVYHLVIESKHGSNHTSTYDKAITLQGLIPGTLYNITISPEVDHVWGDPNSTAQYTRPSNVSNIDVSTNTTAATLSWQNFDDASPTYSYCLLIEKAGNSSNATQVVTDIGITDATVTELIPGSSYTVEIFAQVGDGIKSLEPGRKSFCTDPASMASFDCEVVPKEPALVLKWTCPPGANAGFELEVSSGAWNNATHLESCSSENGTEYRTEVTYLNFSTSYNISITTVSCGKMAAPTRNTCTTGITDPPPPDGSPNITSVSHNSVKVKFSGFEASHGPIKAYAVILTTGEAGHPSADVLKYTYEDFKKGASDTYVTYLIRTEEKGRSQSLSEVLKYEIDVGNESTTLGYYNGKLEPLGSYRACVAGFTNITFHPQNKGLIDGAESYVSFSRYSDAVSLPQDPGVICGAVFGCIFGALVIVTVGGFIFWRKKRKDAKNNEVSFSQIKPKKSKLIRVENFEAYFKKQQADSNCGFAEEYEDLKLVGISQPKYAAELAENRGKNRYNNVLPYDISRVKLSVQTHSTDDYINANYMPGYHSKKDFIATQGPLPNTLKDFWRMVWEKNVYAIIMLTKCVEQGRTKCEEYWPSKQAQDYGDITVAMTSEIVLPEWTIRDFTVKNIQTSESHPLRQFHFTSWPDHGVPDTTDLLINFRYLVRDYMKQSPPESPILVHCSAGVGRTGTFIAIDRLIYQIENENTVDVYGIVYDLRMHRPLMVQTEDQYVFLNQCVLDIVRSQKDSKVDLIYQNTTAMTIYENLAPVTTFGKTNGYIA
As to the kind of experiment: Inhibition of HPTP eta.

The IC50 is the concentration needed to halve the response being measured.

Each structure is given as a SMILES string.

For `CNC(=O)[C@@H]1Cc2ccc(NS(=O)(=O)O)cc2CN1C(=O)CCc1cccc(NS(=O)(=O)O)c1`, half-maximal inhibition (IC50) required 150 µM.

For the origin of these results see ChEMBL document CHEMBL1139672, “1,2,3,4-Tetrahydroisoquinolinyl sulfamic acids as phosphatase PTP1B inhibitors” (Bioorg Med Chem Lett, 2006).
